In ChEMBL document CHEMBL1201862, “PubChem BioAssay data set” (2004):
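Five compound concentrations were applied to cells in 96-well plates for 48 hours; endpoints were derived by simple linear interpolation of the resulting dose-response curve. GI50 = concentration required for 50% inhibition of growth.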 Activity calls are given as the source filed them. Rule as the data show it: active = GI50 up to about 1.1 µM and inactive = higher.

What was measured:
Assay in all cases: NCI-60 cell line screen, 48 h
COLO 205 = test system: COLO 205
U-251 = test system: U-251
SK-OV-3 = test system: SK-OV-3
786-0 = test system: 786-0
UACC-257 = test system: UACC-257
SF-539 = test system: SF-539
A498 = test system: A498
SF-295 = test system: SF-295
SK-MEL-28 = test system: SK-MEL-28
HOP-62 = test system: HOP-62
MCF7 = test system: MCF7
BT-549 = test system: BT-549
NCI-H522 = test system: NCI-H522
OVCAR-3 = test system: OVCAR-3
EKVX = test system: EKVX
ACHN = test system: ACHN
NCI-H226 = test system: NCI-H226

Compound | GI50 (COLO 205) | GI50 (U-251) | GI50 (SK-OV-3) | GI50 (786-0) | GI50 (UACC-257) | GI50 (SF-539) | GI50 (A498) | GI50 (SF-295) | GI50 (SK-MEL-28) | GI50 (HOP-62) | GI50 (MCF7) | GI50 (BT-549) | GI50 (NCI-H522) | GI50 (OVCAR-3) | GI50 (EKVX) | GI50 (ACHN) | GI50 (NCI-H226)
C=C1C(=O)C=C[C@]2(C)CC[C@H]3C(=C)C(=O)O[C@@H]3[C@@H]12 | 0.964 µM (active) | 2.13 µM (inactive) | 8.73 µM (inactive) | 0.461 µM (active) | 2.67 µM (inactive) | 0.562 µM (active) | 3.52 µM (inactive) | 15.1 µM (inactive) | 1.91 µM (inactive) | 2.48 µM (inactive) | 0.738 µM (active) | 2.35 µM (inactive) | 0.753 µM (active) | 1.85 µM (inactive) | 3.17 µM (inactive) | 0.9 µM (active) | –
CCOC(=O)C1CCC(=O)N1C(=O)c1cccc(Cl)c1 (centres undefined) | – | > 100 µM (inactive) | – | > 100 µM (inactive) | > 100 µM (inactive) | > 100 µM (inactive) | > 100 µM (inactive) | > 100 µM (inactive) | > 100 µM (inactive) | > 100 µM (inactive) | > 100 µM (inactive) | > 100 µM (inactive) | > 100 µM (inactive) | > 100 µM (inactive) | > 100 µM (inactive) | > 100 µM (inactive) | > 100 µM (inactive)
CN(C)CCCNc1ccc2nnn3c4ccc(OC(=O)c5ccccc5)cc4c(=O)c1c23 | 14 µM (inactive) | 11.5 µM (inactive) | 9.51 µM (inactive) | 3.08 µM (inactive) | 16 µM (inactive) | 6.76 µM (inactive) | 8.41 µM (inactive) | 10.9 µM (inactive) | 15.8 µM (inactive) | 5.92 µM (inactive) | 6.07 µM (inactive) | 16.8 µM (inactive) | 2.84 µM (inactive) | 11.5 µM (inactive) | 4.24 µM (inactive) | 3.05 µM (inactive) | –
CCOC(=O)O/N=C1/C(=C2/C(=O)Nc3ccccc32)Nc2ccccc21 | 15.5 µM (inactive) | 9.14 µM (inactive) | 1.59 µM (inactive) | 5.92 µM (inactive) | 10.2 µM (inactive) | – | 1.47 µM (inactive) | 8.73 µM (inactive) | 10.9 µM (inactive) | 6.81 µM (inactive) | 3.69 µM (inactive) | 7.31 µM (inactive) | 8.53 µM (inactive) | 2.15 µM (inactive) | 2.54 µM (inactive) | 4.41 µM (inactive) | –
COC(=O)c1ccccc1C1CN=NC12Cc1ccc3ccccc3c1C2=O (centres undefined) | > 100 µM (inactive) | > 100 µM (inactive) | – | > 100 µM (inactive) | > 100 µM (inactive) | 73.8 µM (inactive) | > 100 µM (inactive) | 38.5 µM (inactive) | > 100 µM (inactive) | – | > 100 µM (inactive) | > 100 µM (inactive) | 80.4 µM (inactive) | 17.7 µM (inactive) | > 100 µM (inactive) | > 100 µM (inactive) | > 100 µM (inactive)
O=C(NCCCCNCCCNC(=O)c1cc(-c2ccccc2)nc2ccccc12)c1cc(-c2ccccc2)nc2ccccc12 | 1.49 µM (inactive) | 1.91 µM (inactive) | – | 1.67 µM (inactive) | 1.73 µM (inactive) | 2.13 µM (inactive) | 2.08 µM (inactive) | 1.77 µM (inactive) | 1.83 µM (inactive) | 1.63 µM (inactive) | 1.64 µM (inactive) | 9.66 µM (inactive) | 1.7 µM (inactive) | 1.55 µM (inactive) | 1.99 µM (inactive) | 1.9 µM (inactive) | 1.78 µM (inactive)
Cc1c(Cl)ccc2c(=O)c3cccc(CC(=O)O)c3oc12 | > 100 µM (inactive) | > 100 µM (inactive) | – | > 100 µM (inactive) | > 100 µM (inactive) | > 100 µM (inactive) | > 100 µM (inactive) | > 100 µM (inactive) | > 100 µM (inactive) | > 100 µM (inactive) | 35.6 µM (inactive) | 38.5 µM (inactive) | > 100 µM (inactive) | > 100 µM (inactive) | > 100 µM (inactive) | > 100 µM (inactive) | > 100 µM (inactive)
